From PMC7029851, “Antibacterial activity of novel dual bacterial DNA type II topoisomerase inhibitors” (PLoS ONE, 2020)
Values joined by “and” are separate entries in the source; they are usually repeats but may differ in a detail not shown here. Equal values may be shown once. Read-outs that look alike come from different tables or passages of the source.

Legend:
[1] = tested on: N. gonorrhoeae clinical isolates (n = 38); experiment: microbe, parasite or virus in culture; type: cell-based, Neisseria gonorrhoeae; conditions: for MIC50 / MIC90: Neisseria gonorrhoeae
Description: (§1) The bacterial reference strains used in this study were purchased from ATCC (American Type Culture Collection) via LGC Standards (Middlesex, UK). […] Clinical MDR isolates were provided by Aptuit, the IHMA Europa Sàrl repository (Epalinges, Switzerland) and the Statens Serum Institute (Copenhagen, Denmark).
(§2) MICs were determined by the broth microdilution method (the agar dilution method was used only for N. gonorrhoeae) according to CLSI guidelines.
(§3) The results obtained using clinical isolates are reported as MIC50 and MIC90 values.

[2] = target: T1, S. aureus Topoisomerase IV (Staphylococcus aureus, UniProt P0C1U9); experiment: S. aureus topoisomerase IV decatenation gel assay; type: biochemical
T1 construct: purchased Inspiralis (Norwich, UK)
Description: (§4) S. aureus and E. coli DNA gyrase supercoiling and topo IV decatenation assay kits, as well as human topoisomerase II decatenation assay kits, were provided by Inspiralis (Norwich, UK). Assays were performed according to the manufacturer’s instructions. The compounds were serially diluted (1:3 dilutions starting from a 300 μM final concentration) and assayed in a reaction mixture to obtain concentration-response curves in two different replicate experiments. The final concentration of DMSO in the assays was 1% (v/v). The reactions were terminated by the addition of 30 μl chloroform/isoamyl alcohol (26:1) and 30 μl Stop Dye (40% sucrose, 100 mM Tris HCl pH 7.5, 1 mM EDTA, 0.5 μg/ml bromophenol blue), after which the samples were loaded onto a 1.0% TAE ([…]) gel that was then run at 80 V for 2 hours. DNA bands were visualized by ethidium bromide staining the gel for 10 minutes, which was then destained for 10 minutes in water and analysed using gel documentation equipment (Syngene, Cambridge, UK). The DNA in each band was quantitated using Syngene Gene Tools software. Raw gel data (fluorescent band volumes) were converted by the software to percentages of the control (the fully supercoiled or decatenated DNA band). […] The global curve fit non-linear regression tool was used to calculate the IC50 values. The results are expressed as the average values obtained after calculating the IC50 from each replicate run.

E. coli TolC- mutant = experiment: microbe, parasite or virus in culture; type: cell-based; conditions: Escherichia coli
Description: as §1, §2

E. coli DNA gyrase = target: T2, E. coli DNA gyrase (Escherichia coli, UniProt P0AES4); experiment: E. coli DNA gyrase supercoiling gel assay; type: biochemical
T2 construct: purchased Inspiralis (Norwich, UK)
Description: as §4

N. gonorrhoeae WHO N = experiment: MIC, agar dilution; type: cell-based; conditions: Neisseria gonorrhoeae, ciprofloxacin-resistant
Description: as §2

[3] = tested on: N. gonorrhoeae ATCC 19424; experiment: MIC, agar dilution; type: cell-based; conditions: Neisseria gonorrhoeae, ATCC19424; N. gonorrhoeae ATCC 19424, ciprofloxacin-susceptible
Description: as §2

N. gonorrhoeae WHO K = experiment: MIC, agar dilution; type: cell-based; conditions: Neisseria gonorrhoeae, ciprofloxacin-resistant
Description: as §2

[4] = tested on: N. gonorrhoeae ATCC 49226; experiment: MIC, agar dilution; type: cell-based; conditions: Neisseria gonorrhoeae, ATCC49226; N. gonorrhoeae ATCC 49226, ciprofloxacin-susceptible
Description: as §2

N. gonorrhoeae WHO L = experiment: MIC, agar dilution; type: cell-based; conditions: Neisseria gonorrhoeae, ciprofloxacin-resistant
Description: as §2

E. coli Topoisomerase IV = target: T3, E. coli Topoisomerase IV (Escherichia coli, UniProt P0AFI2); experiment: E. coli topoisomerase IV decatenation gel assay; type: biochemical
T3 construct: purchased Inspiralis (Norwich, UK)
Description: as §4

P. aeruginosa ATCC 27853 = experiment: MIC, broth microdilution; type: cell-based; conditions: Pseudomonas aeruginosa, ATCC27853; P. aeruginosa ATCC 27853, ciprofloxacin-susceptible
Description: as §2

S. pneumoniae ATCC 49619 = experiment: MIC, broth microdilution; type: cell-based; conditions: Streptococcus pneumoniae, ATCC49619; S. pneumoniae ATCC 49619, ciprofloxacin-susceptible
Description: as §2

E. coli ATCC 25922 = experiment: MIC, broth microdilution; type: cell-based; conditions: Escherichia coli, ATCC25922; E. coli ATCC 25922, ciprofloxacin-susceptible
Description: as §2

E. faecalis ATCC 29212 = experiment: MIC, broth microdilution; type: cell-based; conditions: Enterococcus faecalis, ATCC29212; E. faecalis ATCC 29212, ciprofloxacin-susceptible
Description: as §2

H. influenzae ATCC 49766 = experiment: MIC, broth microdilution; type: cell-based; conditions: Haemophilus influenzae, ATCC49766; H. influenzae ATCC 49766, ciprofloxacin-susceptible
Description: as §2

[5] = tested on: K. pneumoniae ATCC 700603; experiment: MIC, broth microdilution; type: cell-based; conditions: Klebsiella pneumoniae, ATCC700603; K. pneumoniae ATCC 700603, ciprofloxacin-susceptible
Description: as §2

S. aureus BAA-1720 = experiment: MIC, broth microdilution; type: cell-based; conditions: Staphylococcus aureus, BAA1720; S. aureus BAA-1720, ciprofloxacin-resistant
Description: as §2

Human Topoisomerase II = target: T4, Human Topoisomerase II (Homo sapiens, UniProt P11388); experiment: Human topoisomerase II decatenation gel assay; type: biochemical
T4 construct: purchased Inspiralis (Norwich, UK)
Description: as §4

S. aureus ATCC 29213 = experiment: MIC, broth microdilution; type: cell-based, Staphylococcus aureus; conditions: for MIC fold lower than that of ciprofloxacin: S. aureus ATCC 29213; for MIC: Staphylococcus aureus
Description: as §2

S. aureus DNA gyrase = target: T5, S. aureus DNA gyrase (Staphylococcus aureus, UniProt P20831); experiment: S. aureus DNA gyrase supercoiling gel assay; type: biochemical
T5 construct: purchased Inspiralis (Norwich, UK)
Description: as §4

[6] = tested on: E. faecium clinical isolates (n = 12) vanA (6)/vanB (6); experiment: MIC, multidrug-resistant clinical isolates; type: cell-based; conditions: Enterococcus faecium; for MIC: read-out: MIC range
Description: as §1, §2, §3

[7] = tested on: E. faecalis clinical isolates (n = 12) vanA (6)/vanB (6); experiment: MIC, multidrug-resistant clinical isolates; type: cell-based; conditions: Enterococcus faecalis; for MIC: read-out: MIC range
Description: as §1, §2, §3

S. pyogenes APV00083 = experiment: MIC, broth microdilution; type: cell-based; conditions: Streptococcus pyogenes; S. pyogenes APV00083, ciprofloxacin-susceptible
Description: as §2

[8] = replicate Assay 1, read-out: IC50 S. aureus Topoisomerase IV decatenation, Assay 1
[9] = replicate Assay 2, read-out: IC50 S. aureus Topoisomerase IV decatenation, Assay 2
[10] = IC50 E. coli Gyrase Supercoiling (average), average of two replicate experiments
[11] = IC50 E. coli gyrase Supercoiling, Assay 1, replicate Assay 1
[12] = IC50 E. coli gyrase Supercoiling, Assay 2, replicate Assay 2
[13] = IC50 E. coli Topoisomerase IV decatenation (average), average of two replicate experiments
[14] = IC50 E. coli Topoisomerase IV decatenation, Assay 1, replicate Assay 1
[15] = IC50 E. coli Topoisomerase IV decatenation, Assay 2, replicate Assay 2
[16] = average of two replicate experiments, read-out: IC50 Human Topoisomerase II decatenation (average)
[17] = replicate Assay 1, read-out: IC50 Human Topoisomerase II (TopoII) decatenation, Assay 1
[18] = replicate Assay 2, read-out: IC50 Human Topoisomerase II (TopoII) decatenation, Assay 2
[19] = ATCC29213, S. aureus ATCC 29213, ciprofloxacin-susceptible
[20] = average of two replicate experiments, read-out: IC50 S. aureus Gyrase Supercoiling (average)
[21] = replicate Assay 1, read-out: IC50 S.aureus gyrase Supercoiling, Assay 1
[22] = replicate Assay 2, read-out: IC50 S.aureus gyrase Supercoiling, Assay 2

T5 sequence (P20831 whole entry): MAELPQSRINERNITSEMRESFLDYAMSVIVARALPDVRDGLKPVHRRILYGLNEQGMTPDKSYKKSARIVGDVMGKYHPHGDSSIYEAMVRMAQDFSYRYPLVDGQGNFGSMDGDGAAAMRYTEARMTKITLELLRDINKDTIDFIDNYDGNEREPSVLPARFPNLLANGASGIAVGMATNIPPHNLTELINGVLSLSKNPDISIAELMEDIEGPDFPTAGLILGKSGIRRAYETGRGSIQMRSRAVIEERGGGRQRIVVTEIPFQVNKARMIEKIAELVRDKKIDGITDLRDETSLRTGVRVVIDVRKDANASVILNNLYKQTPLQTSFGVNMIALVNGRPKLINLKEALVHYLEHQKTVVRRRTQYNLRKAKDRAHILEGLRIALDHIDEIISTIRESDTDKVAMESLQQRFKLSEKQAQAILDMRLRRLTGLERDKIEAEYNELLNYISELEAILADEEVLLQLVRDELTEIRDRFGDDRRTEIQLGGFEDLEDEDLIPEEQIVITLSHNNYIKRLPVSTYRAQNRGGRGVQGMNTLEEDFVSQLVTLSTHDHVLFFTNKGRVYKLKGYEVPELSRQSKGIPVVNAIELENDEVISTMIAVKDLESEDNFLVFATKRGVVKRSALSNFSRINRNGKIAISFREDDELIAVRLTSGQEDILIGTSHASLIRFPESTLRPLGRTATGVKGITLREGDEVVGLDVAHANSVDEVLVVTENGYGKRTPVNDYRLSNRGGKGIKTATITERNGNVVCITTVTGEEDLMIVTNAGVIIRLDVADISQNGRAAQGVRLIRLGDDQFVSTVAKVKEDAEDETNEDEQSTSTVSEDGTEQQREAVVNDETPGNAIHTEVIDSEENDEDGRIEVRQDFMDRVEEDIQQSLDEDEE
T5 sequence (P0A0K8 whole entry partner): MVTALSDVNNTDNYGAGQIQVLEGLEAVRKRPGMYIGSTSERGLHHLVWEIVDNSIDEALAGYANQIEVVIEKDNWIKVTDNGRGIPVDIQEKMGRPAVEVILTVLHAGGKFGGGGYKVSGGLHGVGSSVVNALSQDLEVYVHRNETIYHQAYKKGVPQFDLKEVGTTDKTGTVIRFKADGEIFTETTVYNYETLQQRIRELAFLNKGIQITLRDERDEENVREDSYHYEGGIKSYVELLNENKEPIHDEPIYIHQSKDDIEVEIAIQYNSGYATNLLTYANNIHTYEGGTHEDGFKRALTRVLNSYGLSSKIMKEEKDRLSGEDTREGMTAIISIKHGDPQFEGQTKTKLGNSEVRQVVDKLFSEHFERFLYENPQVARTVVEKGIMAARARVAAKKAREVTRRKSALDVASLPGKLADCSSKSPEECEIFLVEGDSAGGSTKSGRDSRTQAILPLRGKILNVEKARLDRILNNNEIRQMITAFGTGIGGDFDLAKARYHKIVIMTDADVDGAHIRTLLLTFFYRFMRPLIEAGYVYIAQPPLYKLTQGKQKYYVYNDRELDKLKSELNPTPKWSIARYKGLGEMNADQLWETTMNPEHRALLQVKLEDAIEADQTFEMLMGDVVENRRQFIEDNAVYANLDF
T4 sequence (P11388 whole entry): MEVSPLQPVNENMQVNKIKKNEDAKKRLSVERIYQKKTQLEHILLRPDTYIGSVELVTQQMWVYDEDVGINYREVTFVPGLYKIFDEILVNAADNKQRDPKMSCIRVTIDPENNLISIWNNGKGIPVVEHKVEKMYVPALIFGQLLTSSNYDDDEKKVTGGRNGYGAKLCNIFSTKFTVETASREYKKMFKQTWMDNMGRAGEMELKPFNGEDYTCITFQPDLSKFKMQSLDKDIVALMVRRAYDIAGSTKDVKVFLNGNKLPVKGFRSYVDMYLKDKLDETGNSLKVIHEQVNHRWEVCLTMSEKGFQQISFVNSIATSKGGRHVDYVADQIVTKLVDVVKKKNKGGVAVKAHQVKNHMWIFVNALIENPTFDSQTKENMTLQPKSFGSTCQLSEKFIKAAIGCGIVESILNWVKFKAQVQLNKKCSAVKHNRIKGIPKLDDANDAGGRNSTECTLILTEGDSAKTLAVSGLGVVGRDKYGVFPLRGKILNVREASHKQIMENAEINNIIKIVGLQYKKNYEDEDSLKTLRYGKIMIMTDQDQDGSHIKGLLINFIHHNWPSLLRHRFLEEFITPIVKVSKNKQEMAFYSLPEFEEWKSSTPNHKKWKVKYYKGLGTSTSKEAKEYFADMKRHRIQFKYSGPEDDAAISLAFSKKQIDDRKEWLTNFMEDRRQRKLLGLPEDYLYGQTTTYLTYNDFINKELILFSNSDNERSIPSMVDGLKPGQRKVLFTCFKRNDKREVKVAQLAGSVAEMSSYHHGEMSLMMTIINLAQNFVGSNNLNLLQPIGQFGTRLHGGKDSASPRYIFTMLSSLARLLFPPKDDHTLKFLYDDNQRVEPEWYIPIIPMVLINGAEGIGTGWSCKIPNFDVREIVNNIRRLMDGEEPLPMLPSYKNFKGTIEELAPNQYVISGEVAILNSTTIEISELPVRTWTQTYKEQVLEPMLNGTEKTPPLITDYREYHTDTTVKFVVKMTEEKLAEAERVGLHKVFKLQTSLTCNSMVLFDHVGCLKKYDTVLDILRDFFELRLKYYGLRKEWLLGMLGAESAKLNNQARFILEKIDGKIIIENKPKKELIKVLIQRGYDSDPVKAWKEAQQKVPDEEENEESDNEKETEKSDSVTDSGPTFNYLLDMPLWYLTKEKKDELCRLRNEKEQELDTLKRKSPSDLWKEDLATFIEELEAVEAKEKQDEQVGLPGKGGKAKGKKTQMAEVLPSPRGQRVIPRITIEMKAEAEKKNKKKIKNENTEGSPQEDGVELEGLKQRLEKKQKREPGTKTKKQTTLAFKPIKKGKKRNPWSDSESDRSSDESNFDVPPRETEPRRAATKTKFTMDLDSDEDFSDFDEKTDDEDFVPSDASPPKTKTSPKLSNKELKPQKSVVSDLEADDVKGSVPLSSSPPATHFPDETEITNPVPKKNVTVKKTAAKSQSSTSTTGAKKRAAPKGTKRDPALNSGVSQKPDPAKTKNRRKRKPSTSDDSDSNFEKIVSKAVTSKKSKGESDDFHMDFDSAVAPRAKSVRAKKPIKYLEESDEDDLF
T3 sequence (P20083 whole entry): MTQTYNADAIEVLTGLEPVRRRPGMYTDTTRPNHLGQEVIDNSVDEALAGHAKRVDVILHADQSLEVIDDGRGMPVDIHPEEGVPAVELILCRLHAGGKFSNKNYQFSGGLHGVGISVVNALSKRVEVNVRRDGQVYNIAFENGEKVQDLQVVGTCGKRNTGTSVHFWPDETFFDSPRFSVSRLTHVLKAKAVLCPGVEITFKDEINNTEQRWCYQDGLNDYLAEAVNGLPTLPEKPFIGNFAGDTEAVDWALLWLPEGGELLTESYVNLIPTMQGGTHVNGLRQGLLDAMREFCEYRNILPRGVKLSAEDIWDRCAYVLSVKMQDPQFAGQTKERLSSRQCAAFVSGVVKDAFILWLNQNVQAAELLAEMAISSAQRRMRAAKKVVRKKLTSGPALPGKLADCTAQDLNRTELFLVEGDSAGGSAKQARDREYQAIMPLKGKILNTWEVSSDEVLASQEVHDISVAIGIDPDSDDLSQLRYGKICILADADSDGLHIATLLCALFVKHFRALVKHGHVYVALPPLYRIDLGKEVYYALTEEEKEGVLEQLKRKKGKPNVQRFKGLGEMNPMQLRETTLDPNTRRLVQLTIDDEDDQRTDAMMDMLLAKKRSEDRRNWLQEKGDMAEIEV
T3 sequence (P0AFI2 whole entry): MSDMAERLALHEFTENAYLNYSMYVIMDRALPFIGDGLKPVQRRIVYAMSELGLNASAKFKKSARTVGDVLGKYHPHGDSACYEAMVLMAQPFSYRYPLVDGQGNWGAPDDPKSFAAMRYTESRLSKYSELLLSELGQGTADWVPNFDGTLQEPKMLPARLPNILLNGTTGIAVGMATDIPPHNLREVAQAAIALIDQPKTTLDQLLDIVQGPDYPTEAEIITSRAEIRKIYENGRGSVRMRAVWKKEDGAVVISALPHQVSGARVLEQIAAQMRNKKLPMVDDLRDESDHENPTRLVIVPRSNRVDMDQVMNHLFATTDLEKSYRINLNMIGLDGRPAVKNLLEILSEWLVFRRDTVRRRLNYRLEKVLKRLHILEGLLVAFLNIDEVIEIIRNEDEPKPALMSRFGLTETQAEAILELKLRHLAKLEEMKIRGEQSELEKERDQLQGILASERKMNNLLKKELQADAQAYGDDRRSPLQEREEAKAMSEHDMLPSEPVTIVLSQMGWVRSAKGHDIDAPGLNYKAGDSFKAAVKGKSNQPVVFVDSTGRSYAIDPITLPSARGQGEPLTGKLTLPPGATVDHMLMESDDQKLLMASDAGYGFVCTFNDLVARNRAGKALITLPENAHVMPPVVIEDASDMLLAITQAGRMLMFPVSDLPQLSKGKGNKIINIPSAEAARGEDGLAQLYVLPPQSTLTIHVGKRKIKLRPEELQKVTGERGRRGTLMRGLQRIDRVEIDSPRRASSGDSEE

Cl.O=c1oc2ccc(F)cc2c2[nH]c(CN[C@H]3CC[C@H](n4c(=O)ccc5ccc(F)cc54)CC3)cc12 [Compound 6, 8-fluoro-2-({[trans-4-(7-fluoro-2-oxoquinolin-1(2H)-yl)cyclohexyl]amino}methyl)[1]benzopyrano[4,3-b]pyrrol-4(1H)-one hydrochloride]
MIC range [1]: 8 to 60 ng/mL | MIC50 [1]: 0.03 µg/mL | MIC90 [1]: 0.06 µg/mL | IC50 [2]: 290 nM | IC50 [2, 8]: 310 nM | IC50 [2, 9]: 260 nM | MIC (E. coli TolC- mutant): ≤ 0.016 µg/mL | IC50 (E. coli DNA gyrase; [10]): 130 nM | IC50 (E. coli DNA gyrase; [11]): 130 nM | IC50 (E. coli DNA gyrase; [12]): 120 nM | MIC (N. gonorrhoeae WHO N): 0.03 µg/mL | MIC [3]: 0.03 µg/mL | MIC (N. gonorrhoeae WHO K): 0.06 µg/mL | MIC [4]: 0.03 µg/mL | MIC (N. gonorrhoeae WHO L): 0.03 µg/mL | IC50 (E. coli Topoisomerase IV; [13]): 250 nM | IC50 (E. coli Topoisomerase IV; [14]): 270 nM | IC50 (E. coli Topoisomerase IV; [15]): 220 nM | MIC (P. aeruginosa ATCC 27853): 4 µg/mL | MIC (S. pneumoniae ATCC 49619): 0.12 µg/mL | MIC (E. coli ATCC 25922): 0.25 µg/mL | MIC (E. faecalis ATCC 29212): 0.25 µg/mL | MIC (H. influenzae ATCC 49766): 0.5 µg/mL | MIC [5]: 8 µg/mL | MIC (S. aureus BAA-1720): ≤ 0.06 µg/mL | IC50 (Human Topoisomerase II; [16]): 10.1 µM and 10 µM | IC50 (Human Topoisomerase II; [17]): 13 µM | IC50 (Human Topoisomerase II; [18]): 7.3 µM | MIC fold lower than that of ciprofloxacin (S. aureus ATCC 29213): approximately 10 fold | MIC (S. aureus ATCC 29213; [19]): ≤ 0.06 µg/mL | IC50 (S. aureus DNA gyrase; [20]): 310 nM | IC50 (S. aureus DNA gyrase; [21]): 270 nM | IC50 (S. aureus DNA gyrase; [22]): 350 nM | MIC50 [6]: 0.25 µg/mL | MIC90 [6]: 0.25 µg/mL | MIC [6]: 0.06 to 1 µg/mL | MIC50 [7]: 0.12 µg/mL | MIC90 [7]: 0.12 µg/mL | MIC [7]: 0.06 to 0.12 µg/mL

Cl.N#Cc1ccc2ccc(=O)n([C@H]3CC[C@H](NCc4cc5c(=O)oc6ccc(F)cc6c5[nH]4)CC3)c2c1 [Compound 2, 1-(trans-4-{[(8-fluoro-4-oxo-1,4-dihydro[1]benzopyrano[4,3-b]pyrrol-2-yl)methyl]amino}cyclohexyl)-2-oxo-1,2-dihydroquinoline-7-carbonitrile hydrochloride]
MIC range [1]: 4 to 120 ng/mL | MIC50 [1]: 0.06 µg/mL | MIC90 [1]: 0.12 µg/mL | IC50 ([2]; average of two replicate experiments, read-out: IC50 S. aureus Topoisomerase IV decatenation (average)): < 100 nM | IC50 [2, 8]: < 100 nM | IC50 [2, 9]: < 100 nM | MIC (E. coli TolC- mutant): ≤ 0.016 µg/mL | IC50 (E. coli DNA gyrase; [10]): 50 nM | IC50 (E. coli DNA gyrase; [11]): 40 nM | IC50 (E. coli DNA gyrase; [12]): 50 nM | MIC (N. gonorrhoeae WHO N): 0.03 µg/mL | MIC [3]: ≤ 0.06 µg/mL | MIC (N. gonorrhoeae WHO K): 0.12 µg/mL | MIC [4]: 0.06 µg/mL | MIC (N. gonorrhoeae WHO L): 0.06 µg/mL | IC50 (E. coli Topoisomerase IV; [13]): 130 nM | IC50 (E. coli Topoisomerase IV; [14]): 100 nM | IC50 (E. coli Topoisomerase IV; [15]): 160 nM | MIC (P. aeruginosa ATCC 27853): 2 µg/mL | MIC (S. pneumoniae ATCC 49619): ≤ 0.06 µg/mL | MIC (S. pyogenes APV00083): ≤ 0.06 µg/mL | MIC (E. coli ATCC 25922): 0.5 µg/mL | MIC (E. faecalis ATCC 29212): 0.25 µg/mL | MIC (H. influenzae ATCC 49766): 0.5 µg/mL | MIC [5]: > 8 µg/mL | MIC (S. aureus BAA-1720): 0.016 µg/mL | IC50 (Human Topoisomerase II; [16]): 6 µM | IC50 (Human Topoisomerase II; [17]): 6 µM | IC50 (Human Topoisomerase II; [18]): 7 µM | MIC fold lower than that of ciprofloxacin (S. aureus ATCC 29213): approximately 10 fold | MIC (S. aureus ATCC 29213; [19]): 0.03 µg/mL | MIC (S. aureus ATCC 29213; ATCC29213, S. aureus ATCC29213, ref strain, S4 File): ≤ 0.06 µg/mL | IC50 (S. aureus DNA gyrase; [20]): < 100 nM | IC50 (S. aureus DNA gyrase; [21]): < 100 nM | IC50 (S. aureus DNA gyrase; [22]): < 100 nM | MIC50 [6]: 0.12 µg/mL | MIC90 [6]: 0.25 µg/mL | MIC [6]: 0.06 to 1 µg/mL | MIC50 [7]: 0.12 µg/mL | MIC90 [7]: 0.12 µg/mL | MIC [7]: 0.06 to 0.12 µg/mL
